Source: patent publication US20140037606A1, “CELL-BASED, ANTI-CANCER VACCINES” (priority 2012, published 2014)

Assays:
bone marrow-derived DCs [1] = assay: DC viability/lifespan by FACS of 7-AAD staining of CD11c+ cells; assay type: cell-based, mouse; conditions: treatment alone, no LPS; data not shown
Experimental: (§1) FIG. 1. Inhibition of mTOR expression prolongs DC lifespan and promotes expression of costimulatory molecules CD40 and CD86. (A) DCs were pulsed with Pam2CSK4, LPS, R848, or CpG for 6 hours and then washed and cultured in complete medium. Cell viability was monitored daily by FACS analysis of 7-AAD staining of CD11c^+ cells. (B) Western blot for mTOR and β-actin protein in Luciferase hpRNA (Luc^hp) or mTOR hpRNA (mTOR^hp)-transduced DCs. (C) DCs were stimulated with media alone, LPS, or rapamycin+LPS for 30 minutes. Cells were subsequently fixed and stained for phosphorylated S6 protein as a molecular readout for mTOR activation and analyzed by FACS. (D) Luc^hp and mTOR^hp-transduced DCs were left untreated or stimulated with LPS and monitored daily for cell viability by analysis of 7-AAD staining of CD11c^+ cells. (E) Luc^hp or mTOR^hp DCs were cultured with or without LPS for 24 hours and analyzed by FACS for CD40 and CD86 expression. […]
(§2) FIG. 2. […] Cells were monitored daily for cell viability as described for FIG. 1. […] (B) DCs were unstimulated or stimulated with LPS, RAP+LPS, or KU+LPS and analyzed by FACS 24 hours later for CD40 and CD86 expression. […] (C) DCs were treated as in (B) and analyzed daily by FACS for CD40 and CD86 expression gated on live CD11c^+ cells. […]

bone marrow-derived DCs [2] = assay: Costimulatory molecule expression on DCs by FACS; assay type: cell-based, mouse
Experimental: as §1, §2

[3] = tested on: mTORC2-mediated Akt phosphorylation; assay: Activation-induced Akt Ser473 phosphorylation in DCs; assay type: cell-based, mouse
human myeloid DCs = assay: Costimulatory molecule expression in human myeloid DCs by FACS; assay type: cell-based; conditions: R848 1 μg/mL, inhibitors 100 nM
Experimental: FIG. 3. Pharmacological inhibition of mTOR augments the duration of costimulatory molecule expression in human myeloid DCs. (A) Human myeloid DCs were either unstimulated or stimulated with R848 in the presence or absence of rapamycin (RAP) or KU. CD40 and CD86 expression was analyzed by FACS. Day 4 costimulatory molecule expression from a representative donor (5430) is depicted. (B) DCs were treated as in (A) and analyzed daily by FACS for CD40 and CD86 expression. (C) DCs were treated as in (A) and analyzed for viability at indicated times by FACS analysis of 7-AAD staining. For each treatment, data from 4-6 individual donors is depicted.
Human DC Culture: Human myeloid DCs were isolated from human blood using MACS positive selection beads. In brief, filters from hospital blood donors were generously donated by the CVPH Medical Center in Plattsburgh, N.Y. Blood cells were obtained by reverse flushing filters in sterile HBSS. PBMCs were obtained by centrifugation of blood samples over Ficoll-Paque Plus (density 1.077 g/mL) (GE Healthcare). Myeloid DCs were enriched using the BDCA-1 Positive Selection DC Islation Kit (Miltenyi Bioscience) per the manufacturer's instructions. […] At indicated times, DCs were harvested and analyzed by FACS for maturation markers.

## COc1ccc(-c2ccc3c(N4CCOCC4)nc(N4C[C@@H](C)O[C@@H](C)C4)nc3n2)cc1CO [KU, KU 0063794]
Bone marrow-derived DCs [1]
  viability of unstimulated DCs: did not impact
Bone marrow-derived DCs [2]; analyzed daily, live CD11c+ cells
  duration of expression of CD40 and CD86 in response to LPS: prolonged
Bone marrow-derived DCs [2]; during LPS stimulation, 24 hours, inhibitors 100 nM
  percentage of DCs expressing CD40 and CD86: increase
[3]
  activation induced Akt Ser473 phosphorylation: inhibited
Human myeloid DCs
  costimulatory molecule expression (CD40, CD86) in response to R848: enhanced
